Columns and labels:
[1] = Glucose-induced membrane lipid peroxidation (LOOH), CHOD-iodide assay in MLVs (Example 4)
Protocol: Vitamin E (α-tocopherol) was also purchased from Sigma-Aldrich and prepared in ethanol at 1.0 mM (ϵ=3.06×10^4 M^−1 cm^−1 at 294 nm) just prior to experimental use. […] All test compounds were further diluted in ethanol or aqueous buffer as needed. Glucose was prepared in saline buffer (0.5 mM HEPES, 154 mM NaCl, pH 7.3) at 11.0 mM (200 mg/dL). CHOD-iodide color reagent (stock) was prepared, with slight modification, as described by from El-Saadani et al. (J. […] Prior to experimental use, the CHOD reagent was activated by adding 24 μM ethylenediaminetetraacetic acid (EDTA), 20 μM butylated hydroxytoluene (BHT), and 0.2% Triton X-100. Multilamellar vesicles (MLVs) were prepared as binary mixtures of DLPC (1.0 or 2.5 mg total phospholipid per sample) and cholesterol at a fixed cholesterol-to-phospholipid (C/P) mole ratio of 0.6:1. […] Aliquot volume was reduced with each successive time point to ensure that spectrophotometric readings were within the optimal adsorption range. […] Sample absorbances were then measured against a CHOD blank at 365 nm using a Beckman DU-640 spectrophotometer. The CHOD colorimetric assay is based on the oxidation of iodide (I^−) by lipid hydroperoxide (LOOH) to form triiodide (I3^−), the quantity of which is directly proportional to the amount of LOOH present in the lipid sample. […]

[2] = Glucose- and peroxidation-induced cholesterol domain formation, small angle x-ray diffraction (Example 4); format: physicochemical
Protocol: The membrane structural effects of glucose and the various compounds examined in this study were measured at 0, 72, and 96 hour intervals. Membrane lipid vesicles were oriented for x-ray diffraction analysis as described by others (e.g., Herbette et al., Biophys. J., vol. 20(2), pages 245-272 (1977)). Briefly, a 100 μL aliquot (containing 250 μg MLV) was aspirated from each sample and transferred to a Lucite® sedimentation cell fitted with an aluminum foil substrate upon which a given sample could be collected by centrifugation. Samples were then loaded into a Sorvall AH-629 swinging bucket rotor (DuPont Corp., Wilmington, Del.) and centrifuged at 35,000 g, 5° C., for 90 min.
After centrifugal orientation, sample supernatants were aspirated and aluminum foil substrates, each supporting a single membrane pellet, were removed from the sedimentation cells. Sample pellets were dried for 5-10 min at ambient conditions, mounted onto curved glass supports, and placed in hermetically-sealed, brass or glass containers (for immediate analysis or temporary storage, respectively). All x-ray diffraction experiments were conducted at 20° C., 74% relative humidity. The latter was established by exposing membrane samples to saturated solutions of L-(+) […] (K2C4H4O6.½H2O). Samples were incubated at these conditions for at least 1 hour prior to experimental analysis.
Oriented membrane samples were aligned at grazing incidence with respect to a collimated, mono-chromatic CuKα x-ray beam (Kα1 and Kα2 unresolved; λ=1.54 Å) produced by a Rigaku Rotaflex RU-200, high-brilliance microfocus generator (Rigaku-MSC, The Woodlands, Tex.) as previously described (Mason et al, Biophys. J., vol. 55(4), pages 769-778 (1989)). […]
The d-space for any given membrane multibilayer is a measurement of the unit cell periodicity of the membrane lipid bilayer (e.g., the distance from the center of one lipid bilayer to the next including surface hydration), and is calculated from Bragg's Law, hλ=2dsinθ, where h is the diffraction order, λ is the wavelength of the x-ray radiation (1.54 Å), d is the membrane lipid bilayer unit cell periodicity, and θ is the Bragg angle equal to one-half the angle between the incident beam and scattered beam.
The presence of cholesterol domains in a given membrane sample results in the production of distinct Bragg (diffraction) peaks having singular periodicity values of 34 and 17 Å (typically referred to as first- and second-order cholesterol domain peaks). Under the specific temperature and relative humidity conditions established for these experiments, the second-order, 17 Å cholesterol domain peak was well-delineated from other, neighboring cholesterol and phospholipid diffraction peaks and was thus used to quantitate relative cholesterol domain peak intensity. […]

human sdLDL = assay: Copper-initiated sdLDL oxidation, TBARS (Example 6)
Protocol: (§1) An experiment to study the antioxidant effect of EPA in small dense LDL (“sdLDL”) was performed. EPA was purchased from Sigma-Aldrich (Saint Louis, Mo.) and solubilized in ethanol to 1 mM under nitrogen atmosphere. Vitamin E (α-tocopherol) was purchased from Sigma-Aldrich and prepared in ethanol at 1.0 mM (ϵ=3.06×10^4 M^−1 cm^−1 at 294 nm) just prior to experimental use. All test compounds were further diluted in ethanol or aqueous buffer as needed.
(§2) Venous blood was collected from healthy volunteers into vacutainer tubes containing sodium EDTA. Plasma was separated by centrifugation at 3000 g for 25 min at 4° C. and adjusted to a density of 1.020 g/mL with KBr. […] Sample TBARS concentrations were determined spectrophotometrically by measuring sample absorbances against a standard curve derived from the hydrolysis of 1,1,3,3-tetramethoxypropane.
(§3) Data are presented as mean±S.D. for (N) separate samples or treatment groups. Differences between groups were analyzed using the two-tailed, Student's t-test (for comparisons between only two groups) or ANOVA followed by Dunnett or Student-Newman-Keuls multiple comparisons post-hoc analysis (for comparisons between three or more groups). […]

[3] = test system: human LDL (unfractionated); assay: Copper-initiated oxidation of unfractionated LDL, TBARS (Example 6); details: 1.0 μM to 10.0 μM
Protocol: as §1, §2, §3

[4] = test system: human low density lipoprotein and model liposomes; details: cited from earlier work
HMG-CoA reductase = target: T1, HMG-CoA reductase (Homo sapiens, UniProt P04035); details: metabolized by hepatic cytochrome P450; cited from earlier work
T1 sequence (P04035 1-888): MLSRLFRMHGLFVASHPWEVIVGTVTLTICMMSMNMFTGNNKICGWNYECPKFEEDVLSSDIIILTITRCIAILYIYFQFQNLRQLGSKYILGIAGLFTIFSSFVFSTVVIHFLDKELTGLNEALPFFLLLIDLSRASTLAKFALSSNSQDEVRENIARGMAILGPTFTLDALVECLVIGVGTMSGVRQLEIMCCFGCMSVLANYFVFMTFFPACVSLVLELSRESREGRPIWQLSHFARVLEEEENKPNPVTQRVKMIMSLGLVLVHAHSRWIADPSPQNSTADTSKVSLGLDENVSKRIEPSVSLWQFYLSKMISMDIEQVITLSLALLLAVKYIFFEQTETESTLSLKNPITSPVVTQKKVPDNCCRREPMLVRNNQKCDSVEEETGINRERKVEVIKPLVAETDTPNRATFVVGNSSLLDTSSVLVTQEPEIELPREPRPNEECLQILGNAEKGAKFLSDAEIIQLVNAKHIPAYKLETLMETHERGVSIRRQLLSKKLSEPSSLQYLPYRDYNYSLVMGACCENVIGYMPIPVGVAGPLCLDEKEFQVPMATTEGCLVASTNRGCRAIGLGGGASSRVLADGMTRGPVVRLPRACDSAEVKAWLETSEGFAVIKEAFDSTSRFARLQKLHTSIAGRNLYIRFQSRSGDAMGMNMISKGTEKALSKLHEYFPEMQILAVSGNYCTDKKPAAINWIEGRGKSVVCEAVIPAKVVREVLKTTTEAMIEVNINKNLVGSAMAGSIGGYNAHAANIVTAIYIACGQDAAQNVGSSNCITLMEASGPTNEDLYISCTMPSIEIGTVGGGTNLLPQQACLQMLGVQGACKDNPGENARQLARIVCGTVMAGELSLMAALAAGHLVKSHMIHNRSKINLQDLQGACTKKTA

[5] = cited from earlier work

With Cc1c(C)c2c(c(C)c1O)CC[C@@](C)(CCC[C@H](C)CCC[C@H](C)CCCC(C)C)O2 [vitamin E, α-tocopherol] the “effect on LOOH formation / lipid peroxidation (FIG. 3)” value ([1]; 72- and 96-hour time points, glucose, 1:30 drug-to-phospholipid mole ratio) was “no significant effect”, the “effect on membrane structure compared to control samples” value ([2]; 0 hours (start of experiment), glucose 200 mg/dL, 1:30 drug-to-phospholipid mole ratio) was “no appreciable effect” and the “cholesterol crystalline domain peaks (d-space 34 Å)” value ([2]; 72 hours oxidative conditions, glucose 200 mg/dL, 1:30) was “observed”. For the same compound, the cholesterol domain peaks ([2]; 96 hours oxidative conditions, glucose 200 mg/dL, 1:30) was “disproportionately greater”, the “effect on cholesterol domain formation compared to control” value ([2]; any experimental time point (FIG. 5)) was “no significant effect” and the sdLDL oxidation (human sdLDL; 1.0 μM to 10.0 μM) was “did not inhibit sdLDL oxidation except at the highest concentration”. For the same compound, the “reduction of TBARS levels compared to vehicle-treated controls” value (human sdLDL; sdLDL, 10.0 μM, 2 hr after 10 μM CuSO4) was 26% and the LDL oxidation [3] was “did not inhibit LDL oxidation at any concentration”.

In the case of CC(C)c1c(C(=O)Nc2ccccc2O)c(-c2ccccc2)c(-c2ccc(F)cc2)n1CC[C@@H](O)C[C@@H](O)CC(=O)O [ATM, Atorvastatin ortho- (o-) hydroxy (active) metabolite], the “antioxidant effects (LOOH formation)” value ([1]; each at 1.0 μM, glucose 200 mg/dL, 96 hours) is listed as “separate and potent antioxidant effects” and the antioxidant properties [4] is listed as “potent antioxidant properties”.

In the case of CC(C)c1c(C(=O)Nc2ccccc2)c(-c2ccccc2)c(-c2ccc(F)cc2)n1CC[C@@H](O)C[C@@H](O)CC(=O)O [atorvastatin], the “share of circulating HMG-CoA reductase inhibitory activity accounted for by active metabolites” value (HMG-CoA reductase) is given as “approximately 70%”, the “circulating levels of chlorotyrosine” value ([5]; 10 mg, 12 weeks) is given as “significantly reduce” and the “circulating levels of dityrosine” value ([5]; 10 mg, 12 weeks) is given as “significantly reduce”. For the same compound, the “circulating levels of nitrotyrosine” value ([5]; 10 mg, 12 weeks) was “significantly reduce” and the “levels of oxidized lipids associated with all apoB100-containing lipid particles” value ([5]; 80 mg, 16 weeks, 2,341 patients) was “significant reduction”.

— US20200289450A1, “METHODS OF REDUCING OR PREVENTING OXIDATIVE MODIFICATION OF MEMBRANE POLYUNSATURATED FATTY ACIDS” (Amarin Pharmaceuticals Ireland Limited, priority 2013, published 2020)
